# ± gives the standard deviation of the reports.
row,SMILES,glass transition temperature
1,*Nc1cc(NC(=O)c2cc(OCCN(C)c3ccc(S(=O)(=O)C(F)(F)C(F)(F)C(F)(F)C(F)(F)C(F)(F)C(F)(F)C(F)(F)C(F)(F)F)cc3)cc(C(*)=O)c2)cc(C(=O)OCCN(C)c2ccc(C#N)cc2)c1 (repeat unit),157.00 °C
2,*CCCCCCN(C(=O)C(F)(F)C(F)(F)C(F)(F)C(=O)N(*)C(C)C)C(C)C (repeat unit),142.50 °C
3,*CC(*)(C)C(=O)OCCCOc1ccc(-c2ccc(C#N)cc2)cc1 (repeat unit),97.00 °C
4,*CCCCCCOC(=O)OCCCCCCCCOC(=O)OCCCCCCOc1ccc(C(=O)c2ccc(O*)cc2)cc1 (repeat unit),-7.70 °C
5,*/C=C/C1CC(*)C2CC=CC12 (repeat unit),53.00 °C
6,*CC(C)(CC)CS* (repeat unit),-50.00 °C
7,*Cc1c(C)c(C)c(CNC(=O)CCCC(=O)N*)c(C)c1C (repeat unit),192.00 °C
8,*OC(COC(=O)c1ccc(-c2cc(CCCCCCCC)c(-c3ccc(C(*)=O)c(F)c3F)cc2CCCCCCCC)c(F)c1F)COc1ccc(/N=N/c2ccc(C#N)cc2)cc1 (repeat unit),61.00 °C
9,*CC(OC(C)=O)C(CCC(C)(O)C=C)C(*)(C)C (repeat unit),85.00 °C
10,*CCCOC(=O)c1ccc(C(=O)O*)cc1 (repeat unit) [Poly(trimethylene terephthalate)],52.92 ± 1.3 °C
11,*CCCCCCCNC(=O)N* (repeat unit),62.00 °C
12,*CC(*)C(=O)OCCCCCCCCC (repeat unit) [Poly(n-nonyl acrylate) ],-60 ± 17 °C
13,*OC(=O)c1ccc(SCCCCSc2ccc(C(*)=O)cc2)cc1 (repeat unit),62.00 °C
14,*CC(*)C(=O)OC([2H])([2H])[2H] (repeat unit),35.00 °C
15,*O[SiH](*)C (repeat unit),-3.39 °C
16,*/C=C/C1CC(*)C(C#N)([Si](C)(C)O[Si](C)(C)C)C1 (repeat unit),88.00 °C
17,*CCN(CCCCCCOc1ccc(/C=C/c2ccc([N+](=O)[O-])cc2)cc1)CCOC(=O)Nc1ccc(C)c(NC(=O)O*)c1 (repeat unit),58.50 °C
18,*OC(C)COCC(C)OC(=O)c1ccccc1C(*)=O (repeat unit),25.00 °C
19,*c1ccc(-c2ccc(-c3ccc([Si](*)(C)C)s3)s2)s1 (repeat unit),45.00 °C

row,SMILES,glass transition temperature
1,*CC(*)OC(=O)c1ccc(Cl)cc1 (repeat unit),70.2 °C
2,*Oc1ccc(Cc2ccc(OC(=O)c3cc(OCCCCC)cc(C(*)=O)c3)cc2)cc1 (repeat unit),110.00 °C
3,*Oc1c(F)c(F)c(COC(c2cccc(C(OCc3c(F)c(F)c(Oc4ccc(Cc5ccc(*)cc5)cc4)c(F)c3F)(C(F)(F)F)C(F)(F)F)c2)(C(F)(F)F)C(F)(F)F)c(F)c1F (repeat unit),94.00 °C
4,*CCCS* (repeat unit),-53.50 °C
5,*Oc1ccc(C(=O)c2ccc(Oc3ccc(C(=O)c4c(C(=O)c5ccc(*)cc5)c(-c5ccccc5)c(-c5ccc6ccccc6c5)c(-c5ccc6ccccc6c5)c4-c4ccccc4)cc3)cc2)cc1 (repeat unit),290.00 °C
6,*c1nnc(-c2cc(CCCCCCCC)c(-c3ccc(-c4sc(-c5nnc(-c6cc(OCCCCCCCC)c(*)cc6OCCCCCCCC)o5)cc4CCCCCCCC)s3)s2)o1 (repeat unit),34.10 °C
7,*CCOC(=O)c1ccc(C(C)(CC)c2ccc(C(=O)O*)cc2)cc1 (repeat unit),95.00 °C
8,*CCCCCCOC(=O)OCCCOC(=O)OCCCCCCOc1ccc(C(=O)c2ccc(O*)cc2)cc1 (repeat unit),16.00 °C
9,*NC(=O)NCCCCCCNC(=O)Nc1cccc(*)n1 (repeat unit),170.00 °C
10,*c1cccc(N2C(=O)C3CCC(C4CCC5C(=O)N(*)C(=O)C5C4)CC3C2=O)c1 (repeat unit),263.00 °C
11,*CCCCCCNC(=O)CCCCCCCCCCCCCCC(=O)N* (repeat unit),40.00 °C
12,*CCNC(=O)Nc1ccc(Cc2ccc(NC(=O)NCCOCCO*)cc2)cc1 (repeat unit),8.00 °C
13,*Oc1ccc(CC(NC(=O)CCc2ccc(OC(=O)CCCCC(*)=O)cc2)C(=O)OCC(C)C)cc1 (repeat unit),56.00 °C
14,*CCCCCCCCCNC(=O)C(OC)C(OC)C(=O)N* (repeat unit),84.00 °C
15,*Oc1ccc(-c2ccc(OC(*)(Oc3ccccc3)Oc3ccccc3)cc2)cc1 (repeat unit),112.00 °C
16,*CC(CO*)(CS(=O)(=O)CCC)CS(=O)(=O)CCC (repeat unit),71.00 °C
17,*CC(*)c1ccc([Si](C)(C)O[Si](C)(C)C)cc1 (repeat unit),35.50 °C
18,*/C(=C(\[2H])C([2H])([2H])C(*)([2H])[2H])C([2H])([2H])[2H] (repeat unit),-58.00 °C

# The next lines start with the values.
row,glass transition temperature,SMILES
1,280.00 °C,*c1cccc(Oc2cccc(Oc3cccc(N4C(=O)c5c(c(-c6ccccc6)c(-c6ccc(-c7c(-c8ccccc8)c8c(c(-c9ccccc9)c7-c7ccccc7)C(=O)N(*)C8=O)cc6)c(-c6ccccc6)c5-c5ccccc5)C4=O)c3)c2)c1 (repeat unit)
2,232.00 °C,*c1ccc(Oc2ccc(-n3nc(-c4ccccc4)cc3-c3cccc(-c4cc(-c5ccccc5)nn4*)c3)cc2)cc1 (repeat unit)
3,333.00 °C,*Oc1c(C)c(C)c(NC(=O)c2ccc(C(=O)Nc3ccc(*)cc3)cc2)c(C)c1C (repeat unit)
4,240.00 °C,*Oc1ccc(NC(=O)c2cc(NC(=O)CCN3C(=O)c4ccccc4C3=O)cc(C(=O)Nc3ccc(*)cc3)c2)cc1 (repeat unit)
5,171.00 °C,*O[Si](Oc1ccc(C2(c3ccc(*)c(C)c3)c3ccccc3-c3ccccc32)cc1C)(c1ccccc1)c1ccccc1 (repeat unit)
6,328.00 °C,*c1cccc(C(=O)Nc2ccc(NC(=O)c3cccc(N4C(=O)c5ccc(-c6cccc7c6C(=O)N(*)C7=O)cc5C4=O)c3)cc2)c1 (repeat unit)
7,209.00 °C,*c1cccc(N2C(=O)c3ccc(Oc4ccc(Sc5ccc(Oc6ccc7c(c6)C(=O)N(*)C7=O)cc5)cc4)cc3C2=O)c1 (repeat unit)
8,241.00 °C,*c1ccc(Oc2ccc(C3(c4ccc(Oc5ccc(N6C(=O)c7ccc(Oc8ccccc8Oc8ccc9c(c8)C(=O)N(*)C9=O)cc7C6=O)cc5C(F)(F)F)cc4)c4ccccc4-c4ccccc43)cc2)c(C(F)(F)F)c1 (repeat unit)
9,170.00 °C,*/C(=C/c1cc(OC)c(/C=C(/c2ccc(*)cc2)c2ccc(OC)cc2)cc1OC)c1ccc(OC)cc1 (repeat unit)
10,267.50 °C,*Nc1cc(NC(=O)c2ccc(C(*)=O)cc2)cc(-c2nc3ccccc3[nH]2)c1 (repeat unit)
11,390.00 °C,*c1ccc(C(=O)Nc2cccc(-n3c(=O)c4cc5c(=O)n(*)c(=O)c5cc4c3=O)c2)cc1 (repeat unit)
12,147.00 °C,*c1ccc(Oc2ccc(C(=O)c3ccc(Oc4ccc(-c5c6c(c(*)c7ccccc57)C(=O)N(CCCCCCCCCCCC)C6=O)cc4)cc3)cc2)cc1 (repeat unit)
13,297.00 °C,*C(=O)c1ccc(Oc2ccc(N3C(=O)c4ccc(*)cc4C3=O)cc2)cc1 (repeat unit)
14,170.00 °C,*Oc1cc(C(C)(C)c2ccccc2)c(OC(=O)c2ccc(C(*)=O)cc2)cc1C(C)(C)c1ccccc1 (repeat unit)
15,292.00 °C,*CC(=O)Nc1ccc(NC(=O)c2ccc3c(c2)C(=O)N(*)C3=O)cc1 (repeat unit)
16,278.00 °C,*Oc1ccc(C2(c3ccc(Oc4ccc(-c5ccc(NC(=O)c6cc(C(=O)Nc7ccc(-c8ccc(*)c(C(F)(F)F)c8)cc7)cc(C(C)(C)C)c6)cc5)cc4C(F)(F)F)cc3)c3ccccc3-c3ccccc32)cc1 (repeat unit)
17,282.00 °C,*c1ccc(Oc2ccc(-c3ccc(Oc4ccc(N5C(=O)C(c6ccccc6)=C(c6ccc(C7=C(c8ccccc8)C(=O)N(*)C7=O)cc6)C5=O)cc4)cc3)cc2)cc1 (repeat unit)
18,275.00 °C,*c1cccc(C(=O)Nc2ccc(Oc3ccc(-c4ccc(Oc5ccc(NC(=O)c6cccc(N7C(=O)c8ccc(-c9cccc%10c9C(=O)N(*)C%10=O)cc8C7=O)c6)cc5)cc4)cc3)cc2)c1 (repeat unit)
19,284.00 °C,*C(=O)Nc1ccc(Sc2ccc(NC(=O)c3ccc4c(c3)C(=O)N(c3ccc(Oc5ccc(N6C(=O)c7ccc(*)cc7C6=O)cc5)cc3)C4=O)cc2)cc1 (repeat unit)
20,31.90 °C,*CCN(CCOC(=O)Nc1ccc(Cc2ccc(NC(=O)O*)cc2)cc1)c1ccccc1 (repeat unit)
21,405.00 ± 36 °C,*c1ccc(N2C(=O)c3ccc(-c4cccc5c4C(=O)N(*)C5=O)cc3C2=O)cc1 (repeat unit)
22,185.00 °C,*c1cc(OCCCCCCCC)cc(N2C(=O)c3ccc(Oc4ccc5c(c4)C(=O)N(*)C5=O)cc3C2=O)c1 (repeat unit)
23,275.00 °C,*C(=O)NC1CCC(CC2CCC(NC(=O)c3ccc(N4C(=O)c5ccc(*)cc5C4=O)cc3)CC2)CC1 (repeat unit)
24,279.00 °C,*c1ccc2c(c1)C(=O)N(c1ccc(Oc3ccc(Oc4ccc(N5C(=O)c6ccc(C(*)(C(F)(F)F)C(F)(F)F)cc6C5=O)cc4)cc3)cc1)C2=O (repeat unit)
25,243.00 °C,*Oc1ccc(C2(c3ccc(Oc4ccc(C(=O)c5ccc(C(=O)c6ccc(*)cc6)cc5)cc4)cc3)c3ccccc3-c3ccccc32)cc1 (repeat unit)
26,151.50 °C,*c1ccc(Oc2ccc3ccc(Oc4ccc(N5C(=O)CC(=O)N(*)C5=S)cc4)cc3c2)cc1 (repeat unit)
27,153.00 °C,*c1ccc(OCCCCCCCCCCOc2ccc(N3C(=O)c4ccc(-c5ccc6c(c5)C(=O)N(*)C6=O)cc4C3=O)cc2)cc1 (repeat unit)
28,171.00 °C,*Oc1ccc2ccc(Oc3ccc(/C(=N/c4ccc(/N=C(\c5ccccc5)c5ccc(*)cc5)cc4)c4ccccc4)cc3)cc2c1 (repeat unit)

# — the PolyMetriX glass transition set
